Source: patent publication US20230157350A1, “DELIVERY SYSTEMS AND METHODS OF MAKING THE SAME” (British American Tobacco (Investments) Limited, priority 2020, published 2023)

Experiments:
[1] = Stability and migration in the delivery system; type: physicochemical
Text: The menthol in a pack of mentholated cigarettes, for example, is contained by an outer plastic packaging film. Within this packaging film, the menthol migrates and equilibrates. However, once this outer packaging film is removed (upon opening the pack for the first time), the menthol will begin to be lost. This migration and loss of the volatile menthol needs to be factored in when deciding how much menthol to include in each delivery system and where to apply it. It also means that the menthol delivery may vary depending on where the menthol is located when the delivery system is used.
This means that greater significance is attached to the amount of WS-3 incorporated into the delivery system, as well as where and how it is incorporated.
In some embodiments, the cooling agent WS-3 is present in the aerosol-generating material. In some embodiments, the cooling agent WS-3 is applied to the aerosol-generating material. As the delivery system is used, the WS-3 is volatilized and is entrained in the aerosol flow through the delivery system. […] This is despite the high temperatures seen in the rods of aerosol-generating material in combustible aerosol provision system, such as cigarettes. This is also despite the relatively low volatility of the WS-3 compared to some cooling agents used in delivery systems, such as menthol.

[2] = Smoking sensory evaluation of cigarettes by testers (1 to 10 scale, N=28); type: in vivo; details: smoked cigarette
Protocol: Test cigarettes were produced using the following amounts of WS-3 applied to the aerosol-generating material in the tobacco rod in the form of a solution:
Various cigarettes were prepared and smoked so that the (1) menthol-family flavor intensity; (2) cooling sensation; and (3) tobacco taste intensity could each be evaluated by testers on a 1 to 10 scale (N=28).

[3] = Sniffing Analysis of uncombusted tobacco, Quantitative Descriptive Profiling (ISO 13299)
Protocol: Further samples were analyzed using “Sniffing Analysis”, an applied sensory method for the assessment of characterizing flavors of standard products, by sniffing the tobacco itself, without combusting it, using a method as provided in the international standard ISO 13299. The data is set out in Tables 4 and 5, showing the results of Quantitative Descriptive Profiling (QDP), providing a score of between 0 and 5 for perception of the different tobacco typical and non-tobacco typical flavor notes
A critical intensity of a Mean >1.0 is highlighted in bold in Tables 4 and 5. On the 0-5 category scale, none of the prototype cigarette of “W53” or “WS23” show any critical intensity above 1.0 for the Non-Tobacco Typical Flavor Notes (see Table 5).

[4] = Smoking sensory evaluation of cigarettes by testers (1 to 10 scale, N=28); type: in vivo; details: 1 mg
Solubility in solvents = type: physicochemical

CC1CCC(C(C)C)C(O)C1 (stereo not drawn) [Menthol]
Migration within the delivery system or packaging during storage [1]: highly volatile and migrates
Cooling Sensation ([2]; 1.5 mg menthol (low)): 4.8
Menthol-Family Flavor Intensity ([2]; 1.5 mg menthol (low)): 4.1
Tobacco Taste Intensity ([2]; 1.5 mg menthol (low)): 3.1
Cooling Sensation ([2]; 3.5 mg menthol (medium)): 7.6
Menthol-Family Flavor Intensity ([2]; 3.5 mg menthol (medium)): 7.0
Tobacco Taste Intensity ([2]; 3.5 mg menthol (medium)): 2.1
Cooling Sensation ([2]; 5.0 mg menthol (high)): 8.8
Menthol-Family Flavor Intensity ([2]; 5.0 mg menthol (high)): 8.0
Tobacco Taste Intensity ([2]; 5.0 mg menthol (high)): 1.4
Non-Tobacco Typical Flavor Note: Alcoholic ([3]; 4 mg, score 0-5): .1
Non-Tobacco Typical Flavor Note: Cacao ([3]; 4 mg, score 0-5): .0
Non-Tobacco Typical Flavor Note: Caramel ([3]; 4 mg, score 0-5): .1
Non-Tobacco Typical Flavor Note: Citrus ([3]; 4 mg, score 0-5): .0
Non-Tobacco Typical Flavor Note: Floral ([3]; 4 mg, score 0-5): .0
Non-Tobacco Typical Flavor Note: Fruity ([3]; 4 mg, score 0-5): .0
Non-Tobacco Typical Flavor Note: Honey ([3]; 4 mg, score 0-5): .1
Non-Tobacco Typical Flavor Note: Licorice ([3]; 4 mg, score 0-5): .0
Non-Tobacco Typical Flavor Note: Minty ([3]; 4 mg, score 0-5): .9
Non-Tobacco Typical Flavor Note: Spicy ([3]; 4 mg, score 0-5): .0
Non-Tobacco Typical Flavor Note: Vanilla ([3]; 4 mg, score 0-5): .1
Tobacco Typical Flavor Note: Animalic ([3]; 4 mg, score 0-5): 0.0
Tobacco Typical Flavor Note: Black Tea ([3]; 4 mg, score 0-5): 0.0
Tobacco Typical Flavor Note: Earthy ([3]; 4 mg, score 0-5): 0.0
Tobacco Typical Flavor Note: Haylike ([3]; 4 mg, score 0-5): 0.0
Tobacco Typical Flavor Note: Roasted ([3]; 4 mg, score 0-5): 0.1
Tobacco Typical Flavor Note: Smoky ([3]; 4 mg, score 0-5): 0.0
Tobacco Typical Flavor Note: Tobacco ([3]; 4 mg, score 0-5): 0.6
Tobacco Typical Flavor Note: Woody ([3]; 4 mg, score 0-5): 0.1
Non-Tobacco Typical Flavor Note: Minty ([3]; 4 mg, score 0-5, listed as menthol): 4.9

CCNC(=O)C1CC(C)CCC1C(C)C (stereo not drawn) [WS-3, N-ethyl-2-(isopropyl)-5-methylcyclohexane carboxamide]
Stability in the aerosol ([1]; high temperatures in rods of combustible aerosol provision systems): stable molecule and is not transformed and does not react with other chemicals in the aerosol
Migration within the delivery system or packaging during storage [1]: does not migrate
Overall flavor conclusion of smoking and sniffing analysis [4]: provides a cooling sensation without menthol flavor
Cooling Sensation ([2]; 1.0 mg cooling agent): significant higher than both control products
Non-Tobacco Typical Flavor Note: Alcoholic ([3]; 1 mg, score 0-5): .0
Non-Tobacco Typical Flavor Note: Cacao ([3]; 1 mg, score 0-5): .2
Non-Tobacco Typical Flavor Note: Caramel ([3]; 1 mg, score 0-5): .1
Non-Tobacco Typical Flavor Note: Citrus ([3]; 1 mg, score 0-5): .0
Non-Tobacco Typical Flavor Note: Floral ([3]; 1 mg, score 0-5): .0
Non-Tobacco Typical Flavor Note: Fruity ([3]; 1 mg, score 0-5): .1
Non-Tobacco Typical Flavor Note: Honey ([3]; 1 mg, score 0-5): .1
Non-Tobacco Typical Flavor Note: Licorice ([3]; 1 mg, score 0-5): .0
Non-Tobacco Typical Flavor Note: Minty ([3]; 1 mg, score 0-5): .0
Non-Tobacco Typical Flavor Note: Spicy ([3]; 1 mg, score 0-5): .1
Non-Tobacco Typical Flavor Note: Vanilla ([3]; 1 mg, score 0-5): .3
Tobacco Typical Flavor Note: Animalic ([3]; 1 mg, score 0-5): 0.1
Tobacco Typical Flavor Note: Black Tea ([3]; 1 mg, score 0-5): 0.0
Tobacco Typical Flavor Note: Earthy ([3]; 1 mg, score 0-5): 0.3
Tobacco Typical Flavor Note: Haylike ([3]; 1 mg, score 0-5): 1.1
Tobacco Typical Flavor Note: Roasted ([3]; 1 mg, score 0-5): 0.7
Tobacco Typical Flavor Note: Smoky ([3]; 1 mg, score 0-5): 0.0
Tobacco Typical Flavor Note: Tobacco ([3]; 1 mg, score 0-5): 3.9
Tobacco Typical Flavor Note: Woody ([3]; 1 mg, score 0-5): 1.3
Solubility in solvents versus humectants (Solubility in solvents; alcohol or DMSO versus propylene glycol): higher in the solvents than in humectants such as propylene glycol
Solubility (Solubility in solvents; alcohol, such as ethanol, and DMSO): readily soluble

CNC(=O)C(C)(C(C)C)C(C)C [WS-23]
Overall flavor conclusion of smoking and sniffing analysis [4]: very low, but detectable minty/menthol flavor
Menthol-Family Flavor Intensity ([2]; 1.0 mg cooling agent): 2.2
Tobacco Taste Intensity ([2]; 1.0 mg cooling agent): 3.9
Non-Tobacco Typical Flavor Note: Alcoholic ([3]; 1 mg, score 0-5): .0
Non-Tobacco Typical Flavor Note: Cacao ([3]; 1 mg, score 0-5): .1
Non-Tobacco Typical Flavor Note: Caramel ([3]; 1 mg, score 0-5): .1
Non-Tobacco Typical Flavor Note: Citrus ([3]; 1 mg, score 0-5): .2
Non-Tobacco Typical Flavor Note: Floral ([3]; 1 mg, score 0-5): .1
Non-Tobacco Typical Flavor Note: Fruity ([3]; 1 mg, score 0-5): .2
Non-Tobacco Typical Flavor Note: Honey ([3]; 1 mg, score 0-5): .1
Non-Tobacco Typical Flavor Note: Licorice ([3]; 1 mg, score 0-5): .0
Non-Tobacco Typical Flavor Note: Minty ([3]; 1 mg, score 0-5): .7
Non-Tobacco Typical Flavor Note: Spicy ([3]; 1 mg, score 0-5): .0
Non-Tobacco Typical Flavor Note: Vanilla ([3]; 1 mg, score 0-5): .3
Tobacco Typical Flavor Note: Animalic ([3]; 1 mg, score 0-5): 0.1
Tobacco Typical Flavor Note: Black Tea ([3]; 1 mg, score 0-5): 0.1
Tobacco Typical Flavor Note: Earthy ([3]; 1 mg, score 0-5): 0.3
Tobacco Typical Flavor Note: Haylike ([3]; 1 mg, score 0-5): 0.9
Tobacco Typical Flavor Note: Roasted ([3]; 1 mg, score 0-5): 0.7
Tobacco Typical Flavor Note: Smoky ([3]; 1 mg, score 0-5): 0.1
Tobacco Typical Flavor Note: Tobacco ([3]; 1 mg, score 0-5): 3.5
Tobacco Typical Flavor Note: Woody ([3]; 1 mg, score 0-5): 1.0
Non-Tobacco Typical Flavor Note: Minty ([3]; 1 mg, score 0-5, listed as WS23): 0.7
